According to PubChem BioAssay AID588648 (The Scripps Research Institute Molecular Screening Center, 2011):
Active and inactive are the calls of the source.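 Rule for the calls: active = Change of at least 30% in epidermal growth factor receptor protein level versus solvent-only controls, drop or rise; inactive = receptor level change under 30% either way.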

System: HCT116 EGFR protein level, western blot, 24 h
Assay: reduction of EGFR protein levels, late-stage follow-up, counter-screen for KLF5 inhibitor project, cell-based, HCT116 colorectal carcinoma, chemiluminescent western blot (AID 588648)
Details: at 10 µM; for inhibition: stronger effect = higher value; for fold change: measured here: EGFR band fold change vs DMSO

SMILES	inhibition	fold change
CN(C(=O)CNC(=O)/C=C/c1cccc(Cl)c1)C1CCS(=O)(=O)CC1	12.7% (inactive)	-1.15
CN(C(=O)COC(=O)/C=C/c1cccc([N+](=O)[O-])c1)C1CCS(=O)(=O)C1 (stereo unspecified)	1.68% (inactive)	-1.02
CN(C(=O)CNC(=O)/C=C/c1cccc(Cl)c1)C1CCS(=O)(=O)C1 (stereo unspecified)	10.3% (inactive)	-1.11
